Data published in PubChem BioAssay AID280 (DTP/NCI, 2004).
Where “and” joins values, the source holds several entries; their conditions need not be identical. Equal entries are not always repeated. Inconclusive results and toxic doses are left out.

Test system: nude mice, LOX melanoma ip, survival T/C
Experiment: NCI In Vivo Anticancer Drug Screen. Data for tumor model Human Amelanotic Melanoma (LOX) (intraperitoneal) in NU/NU BALB/C (nude) mice
Settings: endpoint: median survival time, higher = longer survival
Method: The antitumor activity of compounds was measured in mice bearing transplantable tumors. Survival or tumor size were measured and the results are expressed as the measurement made in the treated group (T) divided by the measurement made in the vehicle treated control group (C). The tumor model used in this assay is Human Amelanotic Melanoma (LOX) (intraperitoneal) in NU/NU BALB/C (nude) mice

[1] = dose: 10.0 mg/kg/injection, schedule: Q04DX003 (ip), vehicle: water
[2] = dose: 20.0 mg/kg/injection, schedule: Q04DX003 (ip), vehicle: water
[3] = dose: 75.0 mg/kg/injection, schedule: Q04DX003 (ip), vehicle: Klucel (hydroxypropylcellulose) (HPC)
[4] = dose: 150.0 mg/kg/injection, schedule: Q04DX003 (ip), vehicle: Klucel (hydroxypropylcellulose) (HPC)
[5] = dose: 1.25 mg/kg/injection, schedule: Q04DX003 (ip), vehicle: water
[6] = dose: 50.0 mg/kg/injection, schedule: Q04DX003 (ip), vehicle: saline with Tween-80
[7] = dose: 100.0 mg/kg/injection, schedule: Q04DX003 (ip), vehicle: saline with Tween-80
[8] = dose: 12.5 mg/kg/injection, schedule: Q04DX003 (ip), vehicle: Klucel (hydroxypropylcellulose) (HPC)
[9] = dose: 25.0 mg/kg/injection, schedule: Q04DX003 (ip), vehicle: Klucel (hydroxypropylcellulose) (HPC)

C/C(=N\NC(=S)N1CCN(c2ccccn2)CC1)c1ccccn1
T/C [1]: 89 % of control | T/C [2]: 95 % of control | T/C (dose: 40.0 mg/kg/injection, schedule: Q04DX003 (ip), vehicle: water): 94 % of control | T/C (dose: 80.0 mg/kg/injection, schedule: Q04DX003 (ip), vehicle: water): 97 % of control

O=C(O)CCCc1ccc(N(CCCl)CCCl)cc1
T/C (dose: 0.2 mg/kg/injection, schedule: Q04DX003 (ip), vehicle: Klucel (hydroxypropylcellulose) (HPC)): 90 % of control | T/C (dose: 0.3 mg/kg/injection, schedule: Q04DX003 (ip), vehicle: Klucel (hydroxypropylcellulose) (HPC)): 95 % of control | T/C (dose: 12.0 mg/kg/injection, schedule: Q01DX001 (ip), vehicle: Klucel (hydroxypropylcellulose) (HPC)): 117 % of control | T/C (dose: 12.0 mg/kg/injection, schedule: Q01DX005 (ip), vehicle: Klucel (hydroxypropylcellulose) (HPC)): 213 % of control | T/C (dose: 12.0 mg/kg/injection, schedule: Q01DX015 (ip), vehicle: Klucel (hydroxypropylcellulose) (HPC)): 173 % of control | T/C (dose: 12.0 mg/kg/injection, schedule: Q04DX003 (ip), vehicle: Klucel (hydroxypropylcellulose) (HPC)): 116 % of control | T/C (dose: 18.0 mg/kg/injection, schedule: Q01DX001 (ip), vehicle: Klucel (hydroxypropylcellulose) (HPC)): 161 % of control | T/C (dose: 18.0 mg/kg/injection, schedule: Q01DX005 (ip), vehicle: Klucel (hydroxypropylcellulose) (HPC)): 190 % of control | T/C (dose: 18.0 mg/kg/injection, schedule: Q01DX015 (ip), vehicle: Klucel (hydroxypropylcellulose) (HPC)): 346 % of control | T/C (dose: 27.0 mg/kg/injection, schedule: Q01DX005 (ip), vehicle: Klucel (hydroxypropylcellulose) (HPC)): 346 % of control | T/C (dose: 27.0 mg/kg/injection, schedule: Q01DX015 (ip), vehicle: Klucel (hydroxypropylcellulose) (HPC)): 346 % of control | T/C (dose: 27.0 mg/kg/injection, schedule: Q04DX003 (ip), vehicle: Klucel (hydroxypropylcellulose) (HPC)): 210 % of control and 248 % of control and 97 % of control

CCCCCNc1ncnc2c(C)[nH]nc12
T/C (dose: 18.75 mg/kg/injection, schedule: Q04DX003 (ip), vehicle: Klucel (hydroxypropylcellulose) (HPC)): 103 % of control | T/C (dose: 37.5 mg/kg/injection, schedule: Q04DX003 (ip), vehicle: Klucel (hydroxypropylcellulose) (HPC)): 94 % of control | T/C [3]: 98 % of control | T/C [4]: 94 % of control

Oc1cccc2ccccc12
T/C (dose: 18.75 mg/kg/injection, schedule: Q04DX003 (ip), vehicle: water): 98 % of control | T/C (dose: 37.5 mg/kg/injection, schedule: Q04DX003 (ip), vehicle: water): 102 % of control | T/C (dose: 75.0 mg/kg/injection, schedule: Q04DX003 (ip), vehicle: water): 106 % of control | T/C (dose: 150.0 mg/kg/injection, schedule: Q04DX003 (ip), vehicle: water): 102 % of control

O=C1c2c(O)ccc(O)c2C(=O)c2c(NCCNCCO)ccc(NCCNCCO)c21
T/C (dose: 0.45 mg/kg/injection, schedule: Q04DX003 (ip), vehicle: other): 168 % of control and 167 % of control | T/C (dose: 0.75 mg/kg/injection, schedule: Q04DX003 (ip), vehicle: other): 375 % of control and 187 % of control | T/C (dose: 1.25 mg/kg/injection, schedule: Q04DX003 (ip), vehicle: other): 256 % of control and 265 % of control | T/C [5]: 218 % of control | T/C (dose: 2.0 mg/kg/injection, schedule: Q04DX003 (ip), vehicle: other): 187 % of control | T/C (dose: 2.08 mg/kg/injection, schedule: Q04DX003 (ip), vehicle: other): 88 % of control | T/C (dose: 2.5 mg/kg/injection, schedule: Q04DX003 (ip), vehicle: water): 120 % of control

ClC1(Cl)Cc2ccccc21
T/C [6]: 109 % of control | T/C [7]: 120 % of control | T/C (dose: 400.0 mg/kg/injection, schedule: Q04DX003 (ip), vehicle: saline with Tween-80): 120 % of control

CCC(NC(N)=O)C(CC)NC(N)=O (configuration not stated)
T/C (dose: 3.13 mg/kg/injection, schedule: Q04DX003 (ip), vehicle: saline with Tween-80): 103 % of control | T/C (dose: 6.25 mg/kg/injection, schedule: Q04DX003 (ip), vehicle: saline with Tween-80): 109 % of control | T/C (dose: 25.0 mg/kg/injection, schedule: Q04DX003 (ip), vehicle: saline with Tween-80): 105 % of control

O=C(Oc1ccccc1)c1cc(O)c(O)c(O)c1
T/C (dose: 37.5 mg/kg/injection, schedule: Q04DX003 (ip), vehicle: saline): 157 % of control | T/C (dose: 75.0 mg/kg/injection, schedule: Q04DX003 (ip), vehicle: saline): 99 % of control | T/C (dose: 150.0 mg/kg/injection, schedule: Q04DX003 (ip), vehicle: saline): 152 % of control | T/C (dose: 300.0 mg/kg/injection, schedule: Q04DX003 (ip), vehicle: saline): 88 % of control | T/C (dose: 600.0 mg/kg/injection, schedule: Q04DX003 (ip), vehicle: saline): 94 % of control

C=C(c1ccc(OC)c(OC)c1)c1nccc2cc(OC)c(OC)cc12
T/C [3]: 88 % of control | T/C [4]: 99 % of control | T/C (dose: 300.0 mg/kg/injection, schedule: Q04DX003 (ip), vehicle: Klucel (hydroxypropylcellulose) (HPC)): 96 % of control

COc1cccc2c1[C@H]1CO[C@H]3C4C[C@H](C(=O)O)C([C@@H](C2)N13)N4C (some centres not stated)
T/C (dose: 0.62 mg/kg/injection, schedule: Q04DX003 (ip), vehicle: water): 121 % of control | T/C [5]: 121 % of control | T/C (dose: 5.0 mg/kg/injection, schedule: Q04DX003 (ip), vehicle: water): 196 % of control | T/C [1]: 152 % of control | T/C [2]: 177 % of control

CCC(=O)[O][Bi]([c]1ccccc1)[c]1ccccc1
T/C (dose: 3.13 mg/kg/injection, schedule: Q04DX003 (ip), vehicle: Klucel (hydroxypropylcellulose) (HPC)): 93 % of control | T/C (dose: 6.25 mg/kg/injection, schedule: Q04DX003 (ip), vehicle: Klucel (hydroxypropylcellulose) (HPC)): 88 % of control | T/C [8]: 110 % of control | T/C [9]: 100 % of control

Clc1cccc(Cl)c1C(Nc1nncs1)Nc1nncs1
T/C [6]: 106 % of control | T/C [7]: 106 % of control

Cc1ccc(C2=CSC3=NCCN23)cc1Cl
T/C [8]: 97 % of control | T/C [9]: 96 % of control | T/C (dose: 50.0 mg/kg/injection, schedule: Q04DX003 (ip), vehicle: Klucel (hydroxypropylcellulose) (HPC)): 101 % of control

NC(=O)c1cc(Cl)nc2nc(Cl)nc(N)c12
T/C (dose: 150.0 mg/kg/injection, schedule: Q04DX003 (ip), vehicle: saline with Tween-80): 92 % of control | T/C (dose: 300.0 mg/kg/injection, schedule: Q04DX003 (ip), vehicle: saline with Tween-80): 111 % of control | T/C (dose: 600.0 mg/kg/injection, schedule: Q04DX003 (ip), vehicle: saline with Tween-80): 94 % of control

NC(=O)CCC(N)C(=O)O (configuration not stated)
T/C (dose: 75.0 mg/kg/injection, schedule: Q04DX003 (ip), vehicle: suspension in saline): 101 % of control | T/C (dose: 150.0 mg/kg/injection, schedule: Q04DX003 (ip), vehicle: suspension in saline): 90 % of control | T/C (dose: 300.0 mg/kg/injection, schedule: Q04DX003 (ip), vehicle: suspension in saline): 95 % of control | T/C (dose: 600.0 mg/kg/injection, schedule: Q04DX003 (ip), vehicle: suspension in saline): 102 % of control | T/C (dose: 1200.0 mg/kg/injection, schedule: Q04DX003 (ip), vehicle: suspension in saline): 101 % of control

Oc1ccc(/C=N/Nc2nnc(N/N=C/c3ccc(O)cc3O)c3ccccc23)c(O)c1
T/C (dose: 12.5 mg/kg/injection, schedule: Q04DX003 (ip), vehicle: suspension in saline): 120 % of control | T/C (dose: 25.0 mg/kg/injection, schedule: Q04DX003 (ip), vehicle: suspension in saline): 119 % of control

CCCCCCn1c(SC)nc(COC(=O)NC)c1COC(=O)NC
T/C (dose: 33.7 mg/kg/injection, schedule: Q04DX003 (ip), vehicle: saline): 118 % of control | T/C (dose: 40.1 mg/kg/injection, schedule: Q04DX003 (ip), vehicle: water): 97 % of control | T/C (dose: 60.1 mg/kg/injection, schedule: Q04DX003 (ip), vehicle: water): 87 % of control | T/C (dose: 67.5 mg/kg/injection, schedule: Q04DX003 (ip), vehicle: saline): 171 % of control | T/C (dose: 90.0 mg/kg/injection, schedule: Q04DX003 (ip), vehicle: water): 97 % of control | T/C (dose: 135.0 mg/kg/injection, schedule: Q04DX003 (ip), vehicle: saline): 208 % of control | T/C (dose: 135.0 mg/kg/injection, schedule: Q04DX003 (ip), vehicle: water): 86 % of control | T/C (dose: 202.4 mg/kg/injection, schedule: Q04DX003 (ip), vehicle: water): 99 % of control
